# What was measured:
# [1] = Release of Coenzyme Q10 into saliva from sugar-coated gums with the sample in the sugar coating, chewed by four subjects; format: in vivo, human; settings: sugar-coated gum, 0.020 wt % CoQ10 in gum, one piece (1.5 g) chewed 5 min, 60 times/min
# Protocol: Sugar-coated gums (1.5 g/tablet) each comprising Coenzyme Q10 in the sugar coating were prepared in the manner described below such that the content of Coenzyme Q10 in 100 g of the sugar-coated gum was 20 mg.
# A gum base (trade name: Gum Base LT2, manufactured by Lotte, Co., Ltd.) was kneaded at 70° C. with xylitol, corn syrup and glycerol, and after the addition of Lemon Oil No. 2451* (flavoring agent), the mixture was cooled to room temperature and molded to a tablet shape.
# Maltitol and gum arabic were added to water and dissolved by heating. After cooling the mixture to room temperature, one each of Sample 1, 2, 4, 5 or 6 was added and mixed homogeneously.
# The sugar solutions thus obtained were each spray dried over the gum centers using a coating pan and dried. The proportion of the sugar-coating layer was 50 parts by weight to 100 parts by weight of the gum center. […]
# Each type of the sugar-coated gums prepared above were sampled in a precise amount of 6 g (total weight of four pieces), and one piece each of these gums was chewed by four subjects under the same conditions as in Test Example 1. […] The samples were subjected to HPLC under the same conditions to determine the contents of Coenzyme Q10 in the chewed gums, and then the release of Coenzyme Q10 into saliva from these gums was evaluated as in Test Example 1.
# [2] = Release of Coenzyme Q10 into saliva from stick gums chewed by four subjects (HPLC of chewed gum); format: in vivo, human; settings: 0.048 wt % CoQ10 in gum, 1 g chewed 5 min, 60 times/min
# Protocol: Using one of Samples 1 to 5 obtained above, raw materials were blended according to the formulation shown below such that the content of Coenzyme Q10 in 100 g of the resulting stick gum would be 48 mg, and each mixture was molded to form a stick gum. Specific procedures are as follows: A gum base was first kneaded at 70° C. with sugar, corn syrup and glycerol, and the mixture was blended with Lemon Oil No. 2451* (flavoring agent) and San Yellow^‡ No. 3* (colorant). One each of Samples 1, 2, 3, 4 or 5 was then added to the resulting mixture. After cooling to room temperature, each material was rolled and molded to prepare a chewing gum (stick gum). The gum base used in the following formulation was purchased from Lotte, Co., Ltd. (Gum Base LT1).
# Each type of the stick gums thus prepared was sampled in a precise amount of 4 g, and placed in a stoppered centrifuge tube. To the tube was added 10 ml of a 20% (v/v) tetrahydrofuran aqueous solution. The tube was then equipped with a Dimroth condenser, and the solution was refluxed, while occasionally mixing it by shaking, in a hot bath at 82° C. for 30 minutes. The refluxed solution was then cooled to room temperature, and 15 ml of diethyl ether was added, followed by extraction with shaking for 10 minutes. […]
# The proportion of Coenzyme Q10 released into saliva was determined based on Equation 1: […]
smiles,measurement,setting,value
"COC1=C(OC)C(=O)C(C/C=C(\C)CC/C=C(\C)CC/C=C(\C)CC/C=C(\C)CC/C=C(\C)CC/C=C(\C)CC/C=C(\C)CC/C=C(\C)CC/C=C(\C)CCC=C(C)C)=C(C)C1=O [Sample 5, Coenzyme Q10]",Release (%) of Coenzyme Q10 into saliva,[1],30.0%
same,Release (%) of Coenzyme Q10 into saliva,[2],0%

# — patent publication US20100008971A1, “CHEWING COMPOSITION COMPRISING COENZYME Q10” (SAN-EI GEN F.F.I., INC., priority 2006, published 2010)
